From US11655268B2, “Nucleoside or nucleotide derivatives, and uses thereof” (ST Pharm Co., Ltd., priority 2018, dated 2023)
Where two headings read alike, the source gives them in different places.

How the values were obtained:
[1] = in vitro; details: dog
[2] = in vitro; details: human
[3] = system: Influenza virus B/Lee/40; assay: Cytopathic effect reduction, influenza B Lee in MDCK cells, MTT; assay type: cell-based; details: for Selectivity index FluB Lee: CC50/EC50; for EC50: read-out: Anti-Flu activity EC50 FluB Lee
[4] = system: MERS-CoV; assay: microbe, parasite or virus in culture; assay type: cell-based, MERS virus (MERS-CoV/KOR/KNIH/002_05_2015); details: Middle East respiratory syndrome-related coronavirus, Huh-7, 72 h, read-out: EC50 MERS-CoV
[5] = system: CHIKV; assay: Cytopathic effect reduction, Chikungunya virus in Vero cells, MTT; assay type: cell-based; details: 72 h, read-out: EC50 CHIKV
[6] = system: DENV; assay: Reduction in viral infection, dengue virus in Vero cells, immunofluorescence (4G2 antibody); assay type: cell-based, Dengue virus New Guinea C (NGC); details: 72 h, read-out: EC50 DENV
[7] = system: ZIKV; assay: Reduction in viral infection, zika virus in Vero cells, immunofluorescence (4G2 antibody); assay type: cell-based, Zikavirus (MR766); details: 72 h, day 3 after infection
[8] = Cytotoxicity (CC50) in Vero cells; details: African green monkey
[9] = system: MDCK cells; details: read-out: Toxicity CC50, day 3, MTT
[10] = system: Madin-Darby Canine Kidney (MDCK) cells; details: 100 μM for 3 days; cited from earlier work
[11] = in vitro; details: human; remark: listed apart in the source
[12] = in vitro; details: cat
[13] = system: FIPV; assay: Cytopathic effect reduction, FIPV in CRFK cells, MTT; assay type: cell-based, feline infectious peritonitis virus (FIPV); details: Alphacoronavirus 1, 72 h; CRFK cells, day 3 after infection; read-out: EC50 FIPV
[14] = system: hCoV (229E); assay: microbe, parasite or virus in culture; assay type: cell-based, Human coronavirus hCoV 229E; details: MRC5, 72 h; MRC-5 cells, day 3 after infection; read-out: EC50 hCoV (229E)
[15] = CC50 (CHIKV), Vero cells, CHIKV test, MTT
[16] = CC50 (DENV), Vero cells, DENV test

SMILES	CC50 at 3 days [1]	CC50 at 3 days [2]	Selectivity index FluB Lee [3]	EC50 ([3]; MDCK, 72 h)	EC50 [4]	EC50 [5]	EC50 [6]	EC50 [7]	CC50 at 3 days [8, 15]	CC50 at 3 days [8, 16]	CC50 at 3 days ([8]; CC50, Vero cells, ZIKV test)	CC50 [9]	EC50 [3]	cell death [10]	CC50 [11]	CC50 [1]	CC50 [12]	EC50 [13]	EC50 [14]
Cc1nccc(C(=O)Nc2ccn(C3O[C@H](CO)[C@@H](O)[C@H]3F)c(=O)n2)n1 (stereo in doubt) [Example 29, N-(1-((2S,3R,4R,5R)-3-fluoro-4-hydroxy-5-(hydroxymethyl)tetrahydrofuran-2-yl)-2-oxo-1,2-dihydropyrimidin-4-yl)-2-methylpyrimidin-4-carboxamide]	> 100 µM	> 100 µM	>17.9	5.6 µM	> 100 µM	24 µM	> 100 µM	> 100 µM	> 100 µM	> 100 µM	> 100 µM								
O=C(Nc1ccn(C2O[C@H](CO)[C@@H](O)[C@H]2F)c(=O)n1)c1ccc([N+](=O)[O-])cn1 (stereo in doubt) [Example 30, N-(1-((2S,3R,4R,5R)-3-fluoro-4-hydroxy-5-(hydroxymethyl)tetrahydrofuran-2-yl)-2-oxo-1,2-dihydropyrimidin-4-yl)-5-nitropicolinamide]	> 100 µM	> 100 µM	>15.4	6.5 µM	> 100 µM	62.5 µM	77.9 µM	> 100 µM	> 100 µM	> 100 µM	> 100 µM								
O=C(Nc1ccn(C2O[C@H](CO)[C@@H](O)[C@H]2F)c(=O)n1)c1cccnn1 (stereo in doubt) [Example 33, N-(1-((2S,3R,4R,5R)-3-fluoro-4-hydroxy-5-(hydroxymethyl)tetrahydrofuran-2-yl)-2-oxo-1,2-dihydropyrimidin-4-yl)pyridazine-3-carboxamide]	> 100 µM	> 100 µM	>12.8	7.8 µM	> 100 µM	86.4 µM	> 100 µM	> 100 µM	> 100 µM	> 100 µM	> 100 µM								
O=C(Nc1ccn(C2O[C@H](CO)[C@@H](O)[C@H]2F)c(=O)n1)c1ccncn1 (stereo in doubt) [Example 36, N-(1-((2S,3R,4R,5R)-3-fluoro-4-hydroxy-5-(hydroxymethyl)tetrahydrofuran-2-yl)-2-oxo-1,2-dihydropyrimidin-4-yl)pyrimidine-4-carboxamide]	> 100 µM	> 100 µM	>8.8	11.4 µM	> 100 µM	57.7 µM	> 100 µM	> 100 µM	> 100 µM	> 100 µM	> 100 µM								
N#Cc1ccc(C(=O)Nc2ccn(C3O[C@H](CO)[C@@H](O)[C@H]3F)c(=O)n2)nc1 (stereo in doubt) [Example 37, 5-cyano-N-(1-((2S,3R,4R,5R)-3-fluoro-4-hydroxy-5-(hydroxymethyl)tetrahydrofuran-2-yl)-2-oxo-1,2-dihydropyrimidin-4-yl)picolinamide]	> 100 µM	> 100 µM	>6.6	15.1 µM	> 100 µM	51.7 µM	> 100 µM	> 100 µM	> 100 µM	> 100 µM	> 100 µM								
Nc1ccn([C@@H]2O[C@H](CO)[C@@H](O)[C@H]2F)c(=O)n1 [2′-FdC, reference compound]												> 100 µM	5.2 µM						
Nc1ccn([C@@H]2O[C@H](CO)[C@@H](O)C2(F)F)c(=O)n1 [Gemcitabine, reference compound]		> 100 µM	185.2	1.3 µM	1.1 µM									about 50%	> 100 µM	241 µM	92 µM	21 µM	0.44 µM
